Experimental data reported in the supplement of paper PMC10307832.

Legend:
Test in all cases: relative viability (nuclei count vs DMSO), 5 days (fraction); higher = more cells survive
NCI-H1666 = system: NCI-H1666
How it was run: (§1)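 Relative viability equals treated-well nuclei counts divided by vehicle-well nuclei counts. Counts came from 4× images of lung cancer cell lines grown in 1536-well plates for 5 days after pin-tool dosing on the day after seeding. Dosing used one drug alone or a fixed anchor-drug dose plus five library-drug doses (not always all listed) in √10 steps, and values are medians of duplicate plates.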

SK-MES-1 = system: SK-MES-1
How it was run: as §1

NCI-H1975 = system: NCI-H1975
How it was run: as §1

LK-2 = system: LK-2
How it was run: as §1

EKVX = system: EKVX
How it was run: as §1

A-427 = system: A-427
How it was run: as §1

COR-L 105 = system: COR-L 105
How it was run: as §1

EMC-BAC-2 = system: EMC-BAC-2
How it was run: as §1

PC-3 [JPC-3] = system: PC-3 [JPC-3]
How it was run: as §1

NCI-H23 = system: NCI-H23
How it was run: as §1

NCI-H520 = system: NCI-H520
How it was run: as §1

NCI-H1755 = system: NCI-H1755
How it was run: as §1

SW 900 = system: SW 900
How it was run: as §1

NCI-H1734 = system: NCI-H1734
How it was run: as §1

ChaGo-K-1 = system: ChaGo-K-1
How it was run: as §1

NCI-H2170 = system: NCI-H2170
How it was run: as §1

NCI-H441 = system: NCI-H441
How it was run: as §1

HCC-366 = system: HCC-366
How it was run: as §1

LOU-NH91 = system: LOU-NH91
How it was run: as §1

H3255 = system: H3255
How it was run: as §1

NCI-H596 = system: NCI-H596
How it was run: as §1

CC(=O)O[C@@]12CO[C@@H]1C[C@H](O)[C@@]1(C)C(=O)[C@H](O)C3=C(C)[C@@H](OC(=O)[C@H](O)[C@@H](NC(=O)OC(C)(C)C)c4ccccc4)C[C@@](O)([C@@H](OC(=O)c4ccccc4)[C@H]21)C3(C)C [Docetaxel] + O=C(c1cc(Cc2n[nH]c(=O)c3ccccc23)ccc1F)N1CCN(C(=O)C2CC2)CC1 [Olaparib] (partner 8 µM)
relative viability (NCI-H1666; first compound 0.0002 µM): 0.786 | relative viability (NCI-H1666; first compound 0.000632 µM): 0.673 | relative viability (NCI-H1666; first compound 0.002 µM): 0.721 | relative viability (NCI-H1666; first compound 0.006325 µM): 0.703 | relative viability (NCI-H1666; first compound 0.02 µM): 0.573 | relative viability (SK-MES-1; first compound 0.0002 µM): 0.719 | relative viability (SK-MES-1; first compound 0.000632 µM): 0.405 | relative viability (SK-MES-1; first compound 0.002 µM): 0.354 | relative viability (SK-MES-1; first compound 0.02 µM): 0.145 | relative viability (NCI-H1975; first compound 0.0002 µM): 0.748 | relative viability (NCI-H1975; first compound 0.000632 µM): 0.448 | relative viability (NCI-H1975; first compound 0.002 µM): 0.239 | relative viability (NCI-H1975; first compound 0.006325 µM): 0.187 | relative viability (NCI-H1975; first compound 0.02 µM): 0.147 | relative viability (LK-2; first compound 0.0002 µM): 0.599 | relative viability (LK-2; first compound 0.000632 µM): 0.249 | relative viability (LK-2; first compound 0.002 µM): 0.156 | relative viability (LK-2; first compound 0.006325 µM): 0.118 | relative viability (LK-2; first compound 0.02 µM): 0.0792 | relative viability (EKVX; first compound 0.0002 µM): 0.839 | relative viability (EKVX; first compound 0.000632 µM): 0.557 | relative viability (EKVX; first compound 0.002 µM): 0.387 | relative viability (EKVX; first compound 0.006325 µM): 0.316 | relative viability (EKVX; first compound 0.02 µM): 0.167 | relative viability (A-427; first compound 0.0002 µM): 0.662 | relative viability (A-427; first compound 0.000632 µM): 0.704 | relative viability (A-427; first compound 0.002 µM): 0.538 | relative viability (A-427; first compound 0.006325 µM): 0.292 | relative viability (A-427; first compound 0.02 µM): 0.198 | relative viability (COR-L 105; first compound 0.0002 µM): 0.8 | relative viability (COR-L 105; first compound 0.000632 µM): 0.591 | relative viability (COR-L 105; first compound 0.002 µM): 0.461 | relative viability (COR-L 105; first compound 0.006325 µM): 0.539 | relative viability (COR-L 105; first compound 0.02 µM): 0.331 | relative viability (EMC-BAC-2; first compound 0.0002 µM): 0.492 | relative viability (EMC-BAC-2; first compound 0.000632 µM): 0.47 | relative viability (EMC-BAC-2; first compound 0.002 µM): 0.364 | relative viability (EMC-BAC-2; first compound 0.006325 µM): 0.318 | relative viability (EMC-BAC-2; first compound 0.02 µM): 0.237 | relative viability (PC-3 [JPC-3]; first compound 0.0002 µM): 1.13 | relative viability (PC-3 [JPC-3]; first compound 0.000632 µM): 1.03 | relative viability (PC-3 [JPC-3]; first compound 0.002 µM): 0.585 | relative viability (PC-3 [JPC-3]; first compound 0.006325 µM): 0.388 | relative viability (PC-3 [JPC-3]; first compound 0.02 µM): 0.234 | relative viability (NCI-H23; first compound 0.0002 µM): 0.366 | relative viability (NCI-H23; first compound 0.002 µM): 0.221 | relative viability (NCI-H23; first compound 0.006325 µM): 0.164 | relative viability (NCI-H23; first compound 0.02 µM): 0.105 | relative viability (NCI-H520; first compound 0.0002 µM): 0.31 | relative viability (NCI-H520; first compound 0.000632 µM): 0.286 | relative viability (NCI-H520; first compound 0.002 µM): 0.22 | relative viability (NCI-H520; first compound 0.006325 µM): 0.165 | relative viability (NCI-H520; first compound 0.02 µM): 0.132 | relative viability (NCI-H1755; first compound 0.0002 µM): 0.87 | relative viability (NCI-H1755; first compound 0.000632 µM): 0.729 | relative viability (NCI-H1755; first compound 0.002 µM): 0.578 | relative viability (NCI-H1755; first compound 0.006325 µM): 0.417 | relative viability (NCI-H1755; first compound 0.02 µM): 0.377 | relative viability (SW 900; first compound 0.0002 µM): 0.817 | relative viability (SW 900; first compound 0.000632 µM): 0.353 | relative viability (SW 900; first compound 0.002 µM): 0.281 | relative viability (SW 900; first compound 0.006325 µM): 0.266 | relative viability (SW 900; first compound 0.02 µM): 0.172 | relative viability (NCI-H1734; first compound 0.0002 µM): 0.498 | relative viability (NCI-H1734; first compound 0.000632 µM): 0.506 | relative viability (NCI-H1734; first compound 0.002 µM): 0.292 | relative viability (NCI-H1734; first compound 0.006325 µM): 0.324 | relative viability (NCI-H1734; first compound 0.02 µM): 0.196 | relative viability (ChaGo-K-1; first compound 0.0002 µM): 0.384 | relative viability (ChaGo-K-1; first compound 0.000632 µM): 0.335 | relative viability (ChaGo-K-1; first compound 0.002 µM): 0.285 | relative viability (ChaGo-K-1; first compound 0.006325 µM): 0.3 | relative viability (ChaGo-K-1; first compound 0.02 µM): 0.181 | relative viability (NCI-H2170; first compound 0.0002 µM): 0.611 | relative viability (NCI-H2170; first compound 0.000632 µM): 0.475 | relative viability (NCI-H2170; first compound 0.002 µM): 0.342 | relative viability (NCI-H2170; first compound 0.006325 µM): 0.136 | relative viability (NCI-H2170; first compound 0.02 µM): 0.126 | relative viability (NCI-H441; first compound 0.0002 µM): 0.446 | relative viability (NCI-H441; first compound 0.000632 µM): 0.324 | relative viability (NCI-H441; first compound 0.002 µM): 0.223 | relative viability (NCI-H441; first compound 0.006325 µM): 0.158 | relative viability (NCI-H441; first compound 0.02 µM): 0.161 | relative viability (HCC-366; first compound 0.0002 µM): 0.245 | relative viability (HCC-366; first compound 0.000632 µM): 0.115 | relative viability (HCC-366; first compound 0.002 µM): 0.0486 | relative viability (HCC-366; first compound 0.006325 µM): 0.0381 | relative viability (HCC-366; first compound 0.02 µM): 0.0133 | relative viability (LOU-NH91; first compound 0.0002 µM): 0.915 | relative viability (LOU-NH91; first compound 0.000632 µM): 0.839 | relative viability (LOU-NH91; first compound 0.002 µM): 0.567 | relative viability (LOU-NH91; first compound 0.006325 µM): 0.396 | relative viability (LOU-NH91; first compound 0.02 µM): 0.315 | relative viability (H3255; first compound 0.0002 µM): 0.59 | relative viability (H3255; first compound 0.000632 µM): 0.555 | relative viability (H3255; first compound 0.002 µM): 0.439 | relative viability (H3255; first compound 0.006325 µM): 0.336 | relative viability (H3255; first compound 0.02 µM): 0.33 | relative viability (NCI-H596; first compound 0.0002 µM): 0.685 | relative viability (NCI-H596; first compound 0.000632 µM): 0.83 | relative viability (NCI-H596; first compound 0.002 µM): 0.638 | relative viability (NCI-H596; first compound 0.006325 µM): 0.418 | relative viability (NCI-H596; first compound 0.02 µM): 0.338
